# From patent publication US20060281899A1, “Mutants of biotin binding protein” (priority 2002, published 2006)
# Columns and labels:
# [1] = IAsys optical biosensor, affinity of avidin and avidin mutants towards 2-iminobiotin; format: binding
# Procedure: Reversibility of biotin binding was measured for avidin and the mutants with an IAsys optical biosensor (Laitinen, O. H. et al., FEBS Lett 461 (1999), 52-8). Protein samples were allowed to bind to a biotin-aminosilane cuvette in PBS containing 1 M NaCl. After the equilibrium was reached, biotin-containing buffer was added and the dissociation of the proteins was monitored. The affinities of the proteins towards 2-iminobiotin were determined with an IAsys optical biosensor (Marttila, A. T. et al. FEBS Lett 441 (1998), 313-7). Biotin-binding activity of the mutants Avd-ci and Avd-ccci after heat treatment was studied with a microtiter plate assay. Protein samples, 5 μg/ml concentration in PBS, were heated for various time periods at 99.9° C. and then chilled on ice. The samples were transferred to a Nunc Maxisorp-plate and incubated at 37° C. for 2 h. The wells were washed three times with PBS-Tween (0.05% v/v). After that the wells were blocked with PBS containing 1% BSA at 37° C. for 30 minutes and washed again with PBS-Tween. Next, biotinylated alkaline phosphatase (Sigma) in PBS, 1% BSA was added and incubated at 37° C. for one hour. Once again, the wells were washed with PBS-Tween and the PNPP substrate in DEA buffer (1 mg/ml) was applied to the wells. The absorbances at 405 nm were measured after incubation for 45 minutes.
# [2] = Non-reducing SDS-PAGE thermostability, oligomeric forms after boiling; format: physicochemical; details: boiled 20 minutes
# Procedure: The heat stability of the AVRs was studied by using an SDS-PAGE-based method (Bayer, E. A., Ehrlich-Rogozinski, S. and Wilchek, M. (1996) Electrophoresis 17, 1319-1324). In this method, each protein sample was divided into two fractions one of which was kept biotin-free and the other was supplemented with an excess of biotin. The samples were then mixed with denaturing SDS-PAGE sample buffer (containing β-mercaptoethanol) and incubated at a given temperature for 20 minutes. After heat treatment, the samples were subjected to SDS-PAGE and visualised by staining with Coomassie brilliant blue. The relative proportions of tetrameric and monomeric forms of the AVR proteins (with avidin as the control) were detected. A similar assay, with β-mercaptoethanol omitted from the sample buffer, was performed to examine the presence of intersubunit disulfide-bridges. Sensitivity to proteinase K was studied both in the absence and in the presence of biotin as described (Laitinen, O. H., Airenne, K. J., Marttila, A. T., Kulik, T., Porkka, E., Bayer, E. A., Wilchek, M. and Kulomaa, M. S. (1999) FEBS Lett. 461, 52-8). The isoelectric point of each AVR was determined by isoelectric focusing as previously reported (Marttila, A. T., Airenne, K. J., Laitinen, O. H., Kulik, T., Bayer, E. A., Wilchek, M. and Kulomaa, M. S. (1998) FEBS Lett. 441, 313-317). […]
# [3] = biotin cuvette; avidin values from literature; cited from earlier work
substance,measurement,setting,value
"wt Avidin: Wild-type chicken avidin (SEQ ID NO 1), purified from chicken egg-white [reference compound]",Kd,[1],25 nM
same,"Monomeric form, relative proportion",[2],100 percentage
same,Reversibility of biotin binding,[3],1 ± 1%
